Measured values from patent publication EP4692090A1 (Shanghai Fosun Pharmaceutical (Group) Co., Ltd., priority 2023, dated 2024).
Read-outs that look alike come from different tables or passages of the source.

Tests used:
LoVo cells = assay: LoVo cell proliferation assay (CellTiter-Glo); assay type: cell-based; details: maximum concentration 10 µM, 9 concentrations
Summary of the method: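 LoVo cells, 2,000 per well, were treated after overnight attachment with 9-point 3-fold dilutions from 10 µM for 5 days at 37 °C. Viability was read by CellTiter-Glo luminescence. Inhibition % was taken relative to DMSO control, and IC50 came from the concentration–inhibition curve.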

ATR kinase = target: T1, ATR kinase (Homo sapiens, UniProt Q13535); assay: Inhibitory effect on ATR kinase activity (Caliper mobility shift, FAM-labeled RAD17 peptide substrate); assay type: biochemical
T1 construct: purchased Eurofins 14-953
Summary of the method: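 Caliper mobility-shift assay with 1 nM ATR, FAM-labeled RAD17 peptide […] and 5 mM ATP in HEPES pH 7.5 with 10 mM MnCl2, run 3 h at 28 °C and stopped with EDTA. Compounds were tested in 10-point 3-fold dilutions from 1 µM. IC50 was fitted from % inhibition of substrate conversion versus blank control.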

[1] = Homo sapiens, LoVo, 120 h, LoVo cells, 2,000 cells per well, 5 days incubation, CellTiter-Glo, read-out: LoVo IC50
[2] = 1 nM ATR kinase (Eurofins), 28°C for 3 hours, maximum concentration 1 µM, 10 concentrations, read-out: ATR kinase IC50
[3] = Homo sapiens, LoVo, 120 h, read-out: LoVo IC50 (nM), LoVo cells, 2,000 cells per well, 5 days incubation, CellTiter-Glo
[4] = read-out: ATR kinase IC50, 1 nM ATR kinase (Eurofins), 28°C for 3 hours, maximum concentration 1 µM, 10 concentrations

T1 sequence (Q13535 whole entry): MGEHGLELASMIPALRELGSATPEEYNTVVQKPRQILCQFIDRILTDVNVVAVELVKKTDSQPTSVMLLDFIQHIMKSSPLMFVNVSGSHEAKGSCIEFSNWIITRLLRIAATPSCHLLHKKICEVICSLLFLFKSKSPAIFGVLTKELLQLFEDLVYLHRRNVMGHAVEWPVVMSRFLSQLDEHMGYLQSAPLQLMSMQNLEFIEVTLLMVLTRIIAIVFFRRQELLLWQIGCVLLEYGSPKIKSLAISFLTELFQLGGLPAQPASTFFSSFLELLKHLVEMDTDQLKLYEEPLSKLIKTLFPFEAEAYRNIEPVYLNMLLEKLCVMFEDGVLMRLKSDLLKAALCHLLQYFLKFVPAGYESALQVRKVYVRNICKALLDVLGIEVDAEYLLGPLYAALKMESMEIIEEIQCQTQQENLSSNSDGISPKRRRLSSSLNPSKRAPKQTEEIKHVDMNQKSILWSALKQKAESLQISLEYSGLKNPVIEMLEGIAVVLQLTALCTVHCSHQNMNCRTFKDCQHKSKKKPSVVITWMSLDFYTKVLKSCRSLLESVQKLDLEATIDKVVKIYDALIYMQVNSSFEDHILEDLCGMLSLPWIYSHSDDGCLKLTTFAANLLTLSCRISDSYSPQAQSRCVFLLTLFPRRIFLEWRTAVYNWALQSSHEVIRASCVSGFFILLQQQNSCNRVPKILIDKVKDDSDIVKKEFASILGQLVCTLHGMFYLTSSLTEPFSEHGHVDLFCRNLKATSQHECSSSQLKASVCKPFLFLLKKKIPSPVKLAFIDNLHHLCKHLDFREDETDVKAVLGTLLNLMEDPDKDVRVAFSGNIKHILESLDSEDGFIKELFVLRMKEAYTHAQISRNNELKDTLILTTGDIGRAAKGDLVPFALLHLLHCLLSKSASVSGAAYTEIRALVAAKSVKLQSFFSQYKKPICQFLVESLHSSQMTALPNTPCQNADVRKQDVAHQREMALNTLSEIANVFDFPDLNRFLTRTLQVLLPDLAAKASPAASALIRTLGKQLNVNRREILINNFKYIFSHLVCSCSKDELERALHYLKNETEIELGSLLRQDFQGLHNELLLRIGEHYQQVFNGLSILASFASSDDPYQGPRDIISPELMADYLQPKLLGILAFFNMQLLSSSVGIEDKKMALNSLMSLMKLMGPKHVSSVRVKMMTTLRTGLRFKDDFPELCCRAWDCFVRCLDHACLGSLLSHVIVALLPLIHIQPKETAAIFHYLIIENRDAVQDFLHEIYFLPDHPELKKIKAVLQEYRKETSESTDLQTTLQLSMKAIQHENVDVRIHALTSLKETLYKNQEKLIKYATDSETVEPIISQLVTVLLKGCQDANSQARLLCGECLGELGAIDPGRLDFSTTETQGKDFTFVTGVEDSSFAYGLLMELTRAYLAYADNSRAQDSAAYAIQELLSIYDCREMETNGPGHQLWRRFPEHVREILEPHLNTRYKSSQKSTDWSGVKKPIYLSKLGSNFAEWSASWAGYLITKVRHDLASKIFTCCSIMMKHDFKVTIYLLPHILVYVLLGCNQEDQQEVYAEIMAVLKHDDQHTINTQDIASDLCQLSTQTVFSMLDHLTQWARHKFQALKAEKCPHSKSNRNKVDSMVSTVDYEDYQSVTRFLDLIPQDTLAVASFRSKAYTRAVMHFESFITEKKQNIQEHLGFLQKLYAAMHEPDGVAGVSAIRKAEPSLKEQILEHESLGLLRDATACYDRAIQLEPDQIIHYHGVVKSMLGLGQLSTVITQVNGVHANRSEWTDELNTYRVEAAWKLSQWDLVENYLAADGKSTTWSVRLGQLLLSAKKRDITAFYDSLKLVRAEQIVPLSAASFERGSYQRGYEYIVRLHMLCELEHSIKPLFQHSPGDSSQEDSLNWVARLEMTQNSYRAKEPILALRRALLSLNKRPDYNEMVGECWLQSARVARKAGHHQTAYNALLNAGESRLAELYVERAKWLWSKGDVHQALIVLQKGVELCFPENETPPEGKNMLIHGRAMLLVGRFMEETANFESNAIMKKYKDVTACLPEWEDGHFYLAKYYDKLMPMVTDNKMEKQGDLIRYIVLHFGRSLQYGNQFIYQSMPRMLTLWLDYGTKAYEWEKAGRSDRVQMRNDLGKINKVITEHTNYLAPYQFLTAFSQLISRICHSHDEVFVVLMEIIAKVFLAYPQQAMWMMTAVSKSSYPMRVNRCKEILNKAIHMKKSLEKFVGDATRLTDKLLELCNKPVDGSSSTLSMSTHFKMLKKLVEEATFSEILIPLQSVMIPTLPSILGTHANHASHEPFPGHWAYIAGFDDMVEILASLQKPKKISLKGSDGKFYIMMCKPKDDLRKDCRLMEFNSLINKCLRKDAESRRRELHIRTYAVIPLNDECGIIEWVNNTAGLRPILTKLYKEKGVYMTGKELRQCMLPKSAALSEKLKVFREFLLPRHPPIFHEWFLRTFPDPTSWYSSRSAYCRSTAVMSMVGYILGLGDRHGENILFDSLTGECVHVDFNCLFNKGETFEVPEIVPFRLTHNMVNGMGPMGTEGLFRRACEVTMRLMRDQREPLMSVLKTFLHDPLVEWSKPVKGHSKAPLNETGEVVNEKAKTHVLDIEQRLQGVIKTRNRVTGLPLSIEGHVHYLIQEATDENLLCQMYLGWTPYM
T1 sequence (Q8WXE1 whole entry partner): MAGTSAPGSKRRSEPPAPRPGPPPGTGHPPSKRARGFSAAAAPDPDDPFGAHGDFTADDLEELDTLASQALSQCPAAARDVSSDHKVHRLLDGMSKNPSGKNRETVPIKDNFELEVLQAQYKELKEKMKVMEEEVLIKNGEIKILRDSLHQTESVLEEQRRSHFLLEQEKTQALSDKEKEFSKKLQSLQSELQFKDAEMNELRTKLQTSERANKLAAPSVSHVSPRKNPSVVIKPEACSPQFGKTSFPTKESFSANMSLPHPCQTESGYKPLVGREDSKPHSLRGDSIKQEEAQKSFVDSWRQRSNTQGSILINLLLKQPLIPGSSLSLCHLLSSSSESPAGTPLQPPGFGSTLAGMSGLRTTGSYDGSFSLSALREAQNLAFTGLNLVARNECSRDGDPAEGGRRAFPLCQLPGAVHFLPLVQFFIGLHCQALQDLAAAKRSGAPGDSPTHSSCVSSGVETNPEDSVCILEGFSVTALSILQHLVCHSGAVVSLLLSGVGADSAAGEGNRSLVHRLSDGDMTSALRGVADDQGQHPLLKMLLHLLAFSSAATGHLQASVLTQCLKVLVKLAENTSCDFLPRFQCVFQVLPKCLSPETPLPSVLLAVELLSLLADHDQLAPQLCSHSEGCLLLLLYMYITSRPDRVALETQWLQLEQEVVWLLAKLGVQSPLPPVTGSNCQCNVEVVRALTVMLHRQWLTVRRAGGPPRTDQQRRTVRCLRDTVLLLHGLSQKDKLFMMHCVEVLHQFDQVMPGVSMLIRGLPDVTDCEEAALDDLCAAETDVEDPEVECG

Row | Structure (SMILES) | IC50 (LoVo cells; [1]) [nM] | IC50 (ATR kinase; [2]) [nM] | IC50 (LoVo cells; [3]) [nM] | IC50 (ATR kinase; [4]) [nM] | further results
1 | CC1c2cc(N3CCOC[C@H]3C)nc3c2c(nn3-c2cc[nH]n2)CCN1C (single isomer, unassigned) [Compound 35A] | < 100 | < 10 | – | – | –
2 | C[C@@H]1COCCN1c1cc2c3c(n1)c(-c1cc[nH]n1)nn3CCC(=O)N2C1(CO)CC1 [Compound 114, (R)-6-(1-(hydroxymethyl)cyclopropyl)-4-(3-methylmorpholinyl)-2-(1H-pyrazol-3-yl)-8,9-dihydro-1,3,6,9a-tetraazabenzo[cd]azulene-7(6H)-one] | – | – | 100 to 1000 | < 10 | –
3 | C[C@@H]1COCCN1c1cc2c3c(n1)c(-c1cc[nH]n1)nn3CCC(=O)N2CC12CC(F)(C1)C2 [Compound 115, (R)-6-((3-fluorobicyclo[1.1.1]pentan-1-yl)methyl)-4-(3-methylmorpholinyl)-2-(1H-pyrazol-3-yl)-8,9-dihydro-1,3,6,9a-tetraazabenzo[cd]azulene-7(6H)-one] | – | – | < 100 | < 10 | –
4 | C[C@@H]1COCCN1c1cc2c3c(n1)c(-c1cc[nH]n1)nn3CCC(=O)N2C1(C)COC1 [Compound 101, (R)-4-(3-methylmorpholinyl)-6-(3-methyloxetan-3-yl)-2-(1H-pyrazol-3-yl)-8,9-dihydro-1,3,6,9a-tetraazabenzo[cd]azulene-7(6H)-one] | – | – | 100 to 1000 | 10 to 100 | –
5 | COCC1(N2C(=O)CCn3nc(-c4cc[nH]n4)c4nc(N5CCOC[C@H]5C)cc2c43)CC1 [Compound 113, (R)-6-(1-(methoxymethyl)cyclopropyl)-4-(3-methylmorpholinyl)-2-(1H-pyrazol-3-yl)-8,9-dihydro-1,3,6,9a-tetraazabenzo[cd]azulene-7(6H)-one] | – | – | 100 to 1000 | 10 to 100 | –
6 | CC(C)N1CCc2nn(-c3cc[nH]n3)c3nc(N4CCOC[C@H]4C)cc(c23)C1C (single isomer, unassigned) [Compound 36B] | – | < 10 | – | – | IC50 (LoVo cells; LoVo cells, 2,000 cells per well, 5 days incubation, CellTiter-Glo, read-out: LoVo IC50): < 100 nM
7 | C[C@@H]1COCCN1c1cc2c3c(nn(-c4cc[nH]n4)c3n1)CCN(S(=O)(=O)C1CC1)C2 [Compound 23, (R)-4-(7-(cyclopropylsulfonyl)-2-(1H-pyrazol-3-yl)-6,7,8,9-tetrahydro-2H-1,2,3,7-tetraazabenzo[cd]azulen-4-yl)-3-methylmorpholine] | 100 to 1000 | < 10 | – | – | –
8 | CCC(C)N1C(=O)CCn2nc(-c3cc[nH]n3)c3nc(N4CCOC[C@H]4C)cc1c32 (stereo partly drawn) [Compound 98, 6-(sec-butyl)-4-((R)-3-methylmorpholinyl)-2-(1H-pyrazol-3-yl)-8,9-dihydro-1,3,6,9a-tetraazabenzo[cd]azulene-7(6H)-one] | – | – | < 100 | < 10 | –
9 | C[C@@H]1COCCN1c1cc2c3c(nn(-c4cc[nH]n4)c3n1)CCN(C(=O)CC(F)(F)F)C2 [Compound 10, (R)-3,3,3-trifluoro-1-(4-(3-methylmorpholino)-2-(1H-pyrazol-3-yl)-2,6,8,9-tetrahydro-7H-1,2,3,7-tetraazabenzo[cd]azulen-7-yl)propan-1-one] | > 1000 | 10 to 100 | – | – | –
10 | C[C@@H]1COCCN1c1cc2c3c(n1)c(-c1cc[nH]n1)nn3CCN(S(C)(=O)=O)C2 [Compound 55, (R)-3-methyl-4-(7-(methylsulfonyl)-2-(1H-pyrazol-3-yl)-6,7,8,9-tetrahydro-1,3,7,9a-tetraazabenzo[cd]azulen-4-yl)morpholine] | 100 to 1000 | 10 to 100 | – | – | –
11 | CC1c2cc(N3CCOC[C@H]3C)nc3c2c(nn3-c2cc[nH]n2)CCN1C(=O)C1(C#N)CC1 (single isomer, unassigned) [Compound 40B] | – | – | – | 10 to 100 | IC50 (LoVo cells; read-out: LoVo IC50, LoVo cells, 2,000 cells per well, 5 days incubation, CellTiter-Glo): 100 to 1000 nM
12 | C[C@@H]1COCCN1c1cc2c3c(n1)c(-c1cc[nH]n1)nn3CCC(=O)N2C1(C#N)CC1 [Compound 105, (R)-1-(4-(3-methylmorpholinyl)-7-oxo-2-(1H-pyrazol-3-yl)-8,9-dihydro-1,3,6,9a-tetraazabenzo[cd]azulene-6(7H)-yl)cyclopropane-1-carbonitrile] | – | – | < 100 | < 10 | –
